Data reported in patent publication US8815835B2, “9-aminonoscapine and its use in treating cancers, including drug-resistant cancers” (Emory University, priority 2008, dated 2014).

How the values were obtained:
tubulin [1] = assay: Tubulin binding assay (fluorescence quenching, dissociation constant); details: 2 μM tubulin, 25 mM PIPES pH 6.8, 30 min at 25° C.; double reciprocal plot; mean±SD, four experiments
Experimental: Noscapine and 9-aminonoscapine (0-150 μM) were incubated with 2 μM tubulin in 25 mM PIPES, pH 6.8, 3 mM MgSO4, and 1 mM EGTA for 30 min at 25° C. The fluorescence intensities of tubulin in the absence and presence of different concentrations of the agents were monitored in a JASCO FP-6500 spectrofluorometer (JASCO, Tokyo, Japan) using a cuvette of 0.3-cm path length.
The excitation wavelength was 295 nm. The inner filter effects were corrected using a formula: […],
where Aex and Aem are the absorbance at the excitation and emission wavelengths.
The dissociation constant (Kd) was estimated using the following equation. ΔF=ΔFmaxL/(Kd+L)
where, ΔF is change in the fluorescence intensity of the tubulin upon binding to noscapine or 9-aminonoscapine, ΔFmax is the maximum change in the fluorescence intensity of the protein when it is fully bound with noscapine or 9-aminonoscapine, and L is the concentration of the ligand.
The ΔFmax value was calculated by the GraphPad Prism 5 software. ΔF was calculated by subtracting the fluorescence intensity of tubulin in the absence of noscapine or 9-aminonoscapine from the fluorescence intensity of tubulin in the presence of different concentrations of noscapine or 9-aminonoscapine.
The data were statistically analyzed and curve fitted using GraphPad Prism 5 software. […]

tubulin [2] = assay: Sedimentation assay of tubulin polymerization (polymer mass); assay type: biochemical; details: for Average % increase in polymer level: tubulin 10 μM, 37° C., 30 min
Experimental: Tubulin solution was centrifuged for 10 min at 80000 g at 4° C. Soluble tubulin was measured by Bradford method. Tubulin (10 μM) was mixed with different concentrations of 9-amino-Noscapine ([…]) in the assembly buffer (100 mM PIPES at pH 6.8, 3 mM MgSO4, 1 mM EGTA, 1 mM GTP, and 1 M sodium glutamate). A reaction control with DMSO was also set up.
Polymerization was carried on by maintaining the temperature at 37° C. in the water bath for 30 min. After polymerization, the reaction mixture was centrifuged at 120000 g at 30° C. for 30 min. The soluble tubulin content was measured by Bradford method. Polymer mass of tubulin was found out by deducting soluble tubulin mass from the total tubulin content.
Tubulin was polymerized in presence or absence of 9-aminonoscapine to observe its effect on polymer formation. Polymer mass of tubulin was measured by sedimentation assay. Before polymerization soluble tubulin comprises total tubulin. Total tubulin content was measured by measuring soluble tubulin by Bradford method. After polymerization, soluble tubulin content was measured and deducted from total tubulin content to find out the polymeric tubulin level.

[3] = system: panel of 60 human tumor cell lines; assay: NCI 60-tumor cell line panel, Sulforhodamine B proliferation assay; assay type: cell-based; details: 48 h treatment, in words; IC50 values only in FIG. 2
Experimental: The panel of 60 human tumor cell lines is organized into subpanels representing leukemia, non-small cell lung, colon, CNS, melanoma, renal, ovarian, breast and prostrate cancer lines. Cells were treated with 9-aminonoscapine at increasing gradient concentrations for 48 h. The IC50 values, which stand for the drug concentration needed to prevent cell proliferation by 50% was then measured using an in vitro Sulforhodamine B assay. Panels show bar-graphically the comparison of IC50 values of 9-aminonoscapine (black bars) for cancer cell lines of various tissue origins.

[4] = system: 1A9 (ovarian cancer cells); assay: Cell proliferation inhibition, 1A9; assay type: cell-based; details: 1A9, in words
[5] = system: paclitaxel-resistant variant (1A9/PTX22); assay: Cell proliferation inhibition, 1A9/PTX22; assay type: cell-based; details: 1A9/PTX22, in words
[6] = system: human lymphoblastoid cells CEM; assay: Cell proliferation inhibition, CEM; assay type: cell-based; details: in words
[7] = system: vinblastine-resistant variant CEM/VLB100; assay: Cell proliferation inhibition, CEM/VLB100; assay type: cell-based, human; details: CEM/VLB100, in words
[8] = system: teniposide-resistant variant CEM/VM-1-5; assay: Cell proliferation inhibition, CEM/VM-1-5; assay type: cell-based, human; details: CEM/VM-1-5, in words

| Compound | Kd (tubulin [1]) [µM] | Average % increase in polymer level (tubulin [2]; 25 μM 9-aminonoscapine) [%] | Average % increase in polymer level (tubulin [2]; 50 μM 9-aminonoscapine) [%] | Average % increase in polymer level (tubulin [2]; 100 μM 9-aminonoscapine) [%] | Average % increase in polymer level (tubulin [2]; 100 μM 9-aminonoscapine, listed as 9-amino-noscapine) [%] | effect on the assembly of tubulin into microtubules in vitro (tubulin [2]; in words) | proliferation of various human cancer cells [3] | inhibition of cell proliferation [4] | inhibition of cell proliferation [5] | inhibition of cell proliferation [6] | inhibition of cell proliferation [7] | inhibition of cell proliferation [8] |
| --- | --- | --- | --- | --- | --- | --- | --- | --- | --- | --- | --- | --- |
| COc1ccc2c(c1OC)C(=O)O[C@@H]2[C@H]1c2c(c(N)c3c(c2OC)OCO3)CCN1C [9-aminonoscapine, (S)-6,7-dimethoxy-3-((R)-4-methoxy-6-methyl-9-amino-5,6,7,8-tetrahydro-[1,3]dioxolo[4,5-g]isoquinolin-5-yl)isobenzofuran-1(3H)-one] | 14 ± 1 | 2.8 ± 0.98 | 3.2 ± 3.6 | 6.3 ± 3.8 | 6.3±3.8 | negligible effect | inhibits the proliferation | effectively inhibits cell proliferation | effectively inhibits cell proliferation | effectively inhibits cell proliferation | effectively inhibits cell proliferation | effectively inhibits cell proliferation |
| COc1ccc2c(c1OC)C(=O)O[C@@H]2[C@H]1c2c(cc3c(c2OC)OCO3)CCN1C [noscapine, (S)-6,7-dimethoxy-3-((R)-4-methoxy-6-methyl-5,6,7,8-tetrahydro[1,3]-dioxolo-[4,5-g]isoquinolin-5-yl)isobenzo-furan-1(3H)-one] | 152 ± 1 | – | – | – | – | – | – | – | – | – | – | – |
